Reference: PubChem BioAssay AID1259407 (Chemical Carcinogenesis Research Information System (CCRIS), 2018)
Activity calls are given as the source filed them. No rule for the calls is given here.

System: CCRIS mutagenicity, Ames/micronucleus/aberration tests
Experiment: CCRIS mutagenicity studies
Text: The CCRIS database contains chemical records with carcinogenicity, mutagenicity, tumor promotion, and tumor inhibition test results. It was developed by the National Cancer Institute (NCI). Data are derived from studies cited in primary journals, current awareness tools, NCI reports, and other sources. Test results have been reviewed by experts in carcinogenesis and mutagenesis.
CCRIS provides historical information from the years 1985 - 2011. It is no longer updated.
This is an archive assay for CCRIS mutagenicity studies.

[1] = Test System: AMES SALMONELLA TYPHIMURIUM, Strain/Indicator: TA98, Metabolic Activation: HAMSTER, LIVER, S-9, AROCLOR 1254 (10%), Method: PREINCUBATION
[2] = Test System: AMES SALMONELLA TYPHIMURIUM, Strain/Indicator: TA98, Metabolic Activation: NONE, Method: PREINCUBATION
[3] = Test System: AMES SALMONELLA TYPHIMURIUM, Strain/Indicator: TA98, Metabolic Activation: RAT, LIVER, S-9, AROCLOR 1254 (10%), Method: PREINCUBATION
[4] = Test System: AMES SALMONELLA TYPHIMURIUM, Strain/Indicator: TA100, Metabolic Activation: HAMSTER, LIVER, S-9, AROCLOR 1254 (10%), Method: PREINCUBATION
[5] = Test System: AMES SALMONELLA TYPHIMURIUM, Strain/Indicator: TA100, Metabolic Activation: NONE, Method: PREINCUBATION
[6] = Test System: AMES SALMONELLA TYPHIMURIUM, Strain/Indicator: TA100, Metabolic Activation: RAT, LIVER, S-9, AROCLOR 1254 (10%), Method: PREINCUBATION
[7] = Test System: AMES SALMONELLA TYPHIMURIUM, Strain/Indicator: TA1535, Metabolic Activation: HAMSTER, LIVER, S-9, AROCLOR 1254 (10%), Method: PREINCUBATION
[8] = Test System: AMES SALMONELLA TYPHIMURIUM, Strain/Indicator: TA1535, Metabolic Activation: NONE, Method: PREINCUBATION
[9] = Test System: AMES SALMONELLA TYPHIMURIUM, Strain/Indicator: TA1535, Metabolic Activation: RAT, LIVER, S-9, AROCLOR 1254 (10%), Method: PREINCUBATION
[10] = Test System: AMES SALMONELLA TYPHIMURIUM, Strain/Indicator: TA1537, Metabolic Activation: HAMSTER, LIVER, S-9, AROCLOR 1254 (10%), Method: PREINCUBATION
[11] = Test System: AMES SALMONELLA TYPHIMURIUM, Strain/Indicator: TA1537, Metabolic Activation: NONE, Method: PREINCUBATION
[12] = Test System: AMES SALMONELLA TYPHIMURIUM, Strain/Indicator: TA1537, Metabolic Activation: RAT, LIVER, S-9, AROCLOR 1254 (10%), Method: PREINCUBATION
[13] = Test System: AMES SALMONELLA TYPHIMURIUM, Strain/Indicator: TA1535, Metabolic Activation: NONE, Method: STANDARD PLATE

Measured: mutagenic call

c1ccc(N=NNc2ccccc2)cc1
inactive: [2] inactive; negative | [5] inactive; negative | [7] inactive; negative | [8] inactive; negative | [9] inactive; negative | [11] inactive; negative
active: End Point: IN VIVO MICRONUCLEUS, Test System: BONE MARROW, Species: MOUSE, Strain/Sex: B6C3F1/MALE, Route: GAVAGE active; positive | [1] active; positive | [3] active; positive | [4] active; positive | [6] active; positive | [10] active; positive | [12] active; positive

O=C(O)c1ccc(/C=C/c2ccc([N+](=O)[O-])o2)cc1
active: [2] active; positive | Test System: AMES SALMONELLA TYPHIMURIUM, Strain/Indicator: TA98, Metabolic Activation: RAT, LIVER, S-9, PCB, Method: PREINCUBATION active; positive | [5] active; positive | Test System: AMES SALMONELLA TYPHIMURIUM, Strain/Indicator: TA100, Metabolic Activation: RAT, LIVER, S-9, PCB, Method: PREINCUBATION active; positive

Cn1c(N)nc2ccc3ncccc3c21
active: Test System: AMES SALMONELLA TYPHIMURIUM, Strain/Indicator: TA98, Metabolic Activation: RAT, LIVER, S-9, AROCLOR 1254, Method: PREINCUBATION active; positive | Test System: AMES SALMONELLA TYPHIMURIUM, Strain/Indicator: TA100, Metabolic Activation: RAT, LIVER, S-9, AROCLOR 1254, Method: PREINCUBATION active; positive

CC(=O)OCN(CCCCCl)N=O
active: Test System: AMES SALMONELLA TYPHIMURIUM, Strain/Indicator: TA92, Metabolic Activation: NONE, Method: STANDARD PLATE active; positive | [13] active; positive

Cc1c[nH]c(=S)[nH]c1=O
inactive: Test System: AMES SALMONELLA TYPHIMURIUM, Strain/Indicator: TA97, Metabolic Activation: HAMSTER, LIVER, S-9, AROCLOR 1254 (10 OR 30%), Method: PREINCUBATION inactive; negative | Test System: AMES SALMONELLA TYPHIMURIUM, Strain/Indicator: TA97, Metabolic Activation: NONE, Method: PREINCUBATION inactive; negative | Test System: AMES SALMONELLA TYPHIMURIUM, Strain/Indicator: TA97, Metabolic Activation: RAT, LIVER, S-9, AROCLOR 1254 (10 OR 30%), Method: PREINCUBATION inactive; negative | Test System: AMES SALMONELLA TYPHIMURIUM, Strain/Indicator: TA98, Metabolic Activation: HAMSTER, LIVER, S-9, AROCLOR 1254 (10 OR 30%), Method: PREINCUBATION inactive; negative | [2] inactive; negative | Test System: AMES SALMONELLA TYPHIMURIUM, Strain/Indicator: TA98, Metabolic Activation: RAT, LIVER, S-9, AROCLOR 1254 (10 OR 30%), Method: PREINCUBATION inactive; negative | Test System: AMES SALMONELLA TYPHIMURIUM, Strain/Indicator: TA100, Metabolic Activation: HAMSTER, LIVER, S-9, AROCLOR 1254 (10 OR 30%), Method: PREINCUBATION inactive; negative | [5] inactive; negative | Test System: AMES SALMONELLA TYPHIMURIUM, Strain/Indicator: TA100, Metabolic Activation: RAT, LIVER, S-9, AROCLOR 1254 (10 OR 30%), Method: PREINCUBATION inactive; negative | Test System: AMES SALMONELLA TYPHIMURIUM, Strain/Indicator: TA1535, Metabolic Activation: HAMSTER, LIVER, S-9, AROCLOR 1254 (10 OR 30%), Method: PREINCUBATION inactive; negative | [8] inactive; negative | Test System: AMES SALMONELLA TYPHIMURIUM, Strain/Indicator: TA1535, Metabolic Activation: RAT, LIVER, S-9, AROCLOR 1254 (10 OR 30%), Method: PREINCUBATION inactive; negative

FC(F)C(F)C(F)(F)F (stereo not drawn)
inactive: Test System: AMES SALMONELLA TYPHIMURIUM, Strain/Indicator: TA97, Metabolic Activation: NONE, Method: CLOSED GLASS VESSEL inactive; negative | Test System: AMES SALMONELLA TYPHIMURIUM, Strain/Indicator: TA97, Metabolic Activation: RAT LIVER S-9, AROCLOR 1254, Method: CLOSED GLASS VESSEL inactive; negative | Test System: AMES SALMONELLA TYPHIMURIUM, Strain/Indicator: TA98, Metabolic Activation: NONE, Method: CLOSED GLASS VESSEL inactive; negative | Test System: AMES SALMONELLA TYPHIMURIUM, Strain/Indicator: TA98, Metabolic Activation: RAT LIVER S-9, AROCLOR 1254, Method: CLOSED GLASS VESSEL inactive; negative | Test System: AMES SALMONELLA TYPHIMURIUM, Strain/Indicator: TA100, Metabolic Activation: NONE, Method: CLOSED GLASS VESSEL inactive; negative | Test System: AMES SALMONELLA TYPHIMURIUM, Strain/Indicator: TA100, Metabolic Activation: RAT LIVER S-9, AROCLOR 1254, Method: CLOSED GLASS VESSEL inactive; negative | Test System: AMES SALMONELLA TYPHIMURIUM, Strain/Indicator: TA1535, Metabolic Activation: NONE, Method: CLOSED GLASS VESSEL inactive; negative | Test System: AMES SALMONELLA TYPHIMURIUM, Strain/Indicator: TA1535, Metabolic Activation: RAT LIVER S-9, AROCLOR 1254, Method: CLOSED GLASS VESSEL inactive; negative | Test System: ESCHERICHIA COLI, Strain/Indicator: WP2 UVR A, Metabolic Activation: NONE, Method: CLOSED GLASS VESSEL inactive; negative | Test System: ESCHERICHIA COLI, Strain/Indicator: WP2 UVR A, Metabolic Activation: RAT LIVER S-9, AROCLOR 1254, Method: CLOSED GLASS VESSEL inactive; negative

O=c1c(Cl)c(Cl)cnn1S(=O)(=O)c1ccccc1
inactive: Test System: AMES SALMONELLA TYPHIMURIUM, Strain/Indicator: TA98, Metabolic Activation: NONE, Method: STANDARD PLATE inactive; negative | Test System: AMES SALMONELLA TYPHIMURIUM, Strain/Indicator: TA98, Metabolic Activation: RAT, LIVER, S-9, AROCLOR 1254, Method: STANDARD PLATE inactive; negative | Test System: AMES SALMONELLA TYPHIMURIUM, Strain/Indicator: TA100, Metabolic Activation: NONE, Method: STANDARD PLATE inactive; negative | Test System: AMES SALMONELLA TYPHIMURIUM, Strain/Indicator: TA100, Metabolic Activation: RAT, LIVER, S-9, AROCLOR 1254, Method: STANDARD PLATE inactive; negative | [13] inactive; negative | Test System: AMES SALMONELLA TYPHIMURIUM, Strain/Indicator: TA1535, Metabolic Activation: RAT, LIVER, S-9, AROCLOR 1254, Method: STANDARD PLATE inactive; negative | Test System: AMES SALMONELLA TYPHIMURIUM, Strain/Indicator: TA1537, Metabolic Activation: NONE, Method: STANDARD PLATE inactive; negative | Test System: AMES SALMONELLA TYPHIMURIUM, Strain/Indicator: TA1537, Metabolic Activation: RAT, LIVER, S-9, AROCLOR 1254, Method: STANDARD PLATE inactive; negative

O=c1[nH]c(=O)n(Cl)c(=O)n1Cl
inactive: [1] inactive; negative | [2] inactive; negative | [3] inactive; negative | [4] inactive; negative | [5] inactive; negative | [6] inactive; negative | [7] inactive; negative | [8] inactive; negative | [9] inactive; negative | [10] inactive; negative | [11] inactive; negative | [12] inactive; negative
